The NIST ThermoML archive (doi:10.1016/j.tca.2012.01.013)
± gives the expanded uncertainty stated by the source.

How the values were obtained:
[1] = xn = mol fraction of the nth substance listed; settings: 101 kPa, Liquid, Vibrating tube method
[2] = refractive index (Na D-line) (dimensionless); xn = mol fraction of the nth substance listed; settings: 101 kPa, Liquid, Standard Abbe refractometry

COC(=O)c1ccccc1C(=O)OC [dimethyl 1,2-benzenedicarboxylate] + CCC(C)=O
Settings	mass density, [1] [kg/m3]	refractive index, [2]
288.15 K, x1 = 0.1002	878.718 ± 0.18	1.40705 ± 0.00037
288.15 K, x1 = 0.2001	936.554 ± 0.16	1.42733 ± 0.00037
288.15 K, x1 = 0.3002	986.029 ± 0.15	1.44555 ± 0.00037
288.15 K, x1 = 0.3997	1028.42 ± 0.17	1.46042 ± 0.00038
288.15 K, x1 = 0.4982	1064.97 ± 0.2	1.47261 ± 0.00038
288.15 K, x1 = 0.6001	1098.15 ± 0.23	1.48425 ± 0.00038
288.15 K, x1 = 0.6993	1126.71 ± 0.27	1.49362 ± 0.00039
288.15 K, x1 = 0.7993	1152.38 ± 0.31	1.50271 ± 0.00039
288.15 K, x1 = 0.9002	1175.59 ± 0.35	1.51071 ± 0.0004
288.15 K, x1 = 1	1196.26 ± 0.39	1.51779 ± 0.0004
293.15 K, x1 = 0.1002	873.583 ± 0.19	1.40471 ± 0.00037
293.15 K, x1 = 0.2001	931.496 ± 0.17	1.42489 ± 0.00037
293.15 K, x1 = 0.3002	981.04 ± 0.16	1.44315 ± 0.00037
293.15 K, x1 = 0.3997	1023.49 ± 0.17	1.45808 ± 0.00038
293.15 K, x1 = 0.4982	1060.1 ± 0.2	1.4703 ± 0.00038
293.15 K, x1 = 0.6001	1093.33 ± 0.23	1.48198 ± 0.00038
293.15 K, x1 = 0.6993	1121.93 ± 0.27	1.49141 ± 0.00039
293.15 K, x1 = 0.7993	1147.64 ± 0.31	1.50053 ± 0.00039
293.15 K, x1 = 0.9002	1170.9 ± 0.35	1.50855 ± 0.0004
293.15 K, x1 = 1	1191.59 ± 0.39	1.51565 ± 0.0004
298.15 K, x1 = 0.1002	868.432 ± 0.19	1.40224 ± 0.00037
298.15 K, x1 = 0.2001	926.423 ± 0.17	1.42243 ± 0.00037
298.15 K, x1 = 0.3002	976.038 ± 0.16	1.44075 ± 0.00037
298.15 K, x1 = 0.3997	1018.55 ± 0.17	1.45576 ± 0.00038
298.15 K, x1 = 0.4982	1055.22 ± 0.2	1.46801 ± 0.00038
298.15 K, x1 = 0.6001	1088.5 ± 0.23	1.47972 ± 0.00038
298.15 K, x1 = 0.6993	1117.16 ± 0.27	1.48918 ± 0.00039
298.15 K, x1 = 0.7993	1142.92 ± 0.3	1.49835 ± 0.00039
298.15 K, x1 = 0.9002	1166.21 ± 0.35	1.5064 ± 0.0004
298.15 K, x1 = 1	1186.93 ± 0.39	1.51354 ± 0.0004
303.15 K, x1 = 0.1002	863.253 ± 0.19	1.39965 ± 0.00037
303.15 K, x1 = 0.2001	921.334 ± 0.17	1.41998 ± 0.00037
303.15 K, x1 = 0.3002	971.032 ± 0.16	1.43839 ± 0.00037
303.15 K, x1 = 0.3997	1013.62 ± 0.17	1.45342 ± 0.00038
303.15 K, x1 = 0.4982	1050.34 ± 0.2	1.4657 ± 0.00038
303.15 K, x1 = 0.6001	1083.68 ± 0.23	1.47746 ± 0.00038
303.15 K, x1 = 0.6993	1112.38 ± 0.26	1.48696 ± 0.00039
303.15 K, x1 = 0.7993	1138.18 ± 0.3	1.49618 ± 0.00039
303.15 K, x1 = 0.9002	1161.51 ± 0.34	1.50426 ± 0.0004
303.15 K, x1 = 1	1182.28 ± 0.38	1.51146 ± 0.0004
308.15 K, x1 = 0.1002	858.059 ± 0.19	1.39705 ± 0.00037
308.15 K, x1 = 0.2001	916.232 ± 0.17	1.41752 ± 0.00037
308.15 K, x1 = 0.3002	966.01 ± 0.16	1.4359 ± 0.00037
308.15 K, x1 = 0.3997	1008.66 ± 0.17	1.45091 ± 0.00038
308.15 K, x1 = 0.4982	1045.45 ± 0.19	1.46339 ± 0.00038
308.15 K, x1 = 0.6001	1078.84 ± 0.23	1.4752 ± 0.00038
308.15 K, x1 = 0.6993	1107.6 ± 0.26	1.48475 ± 0.00039
308.15 K, x1 = 0.7993	1133.45 ± 0.3	1.49399 ± 0.00039
308.15 K, x1 = 0.9002	1156.83 ± 0.34	1.50211 ± 0.0004
308.15 K, x1 = 1	1177.62 ± 0.38	1.50943 ± 0.0004
313.15 K, x1 = 0.1002	852.838 ± 0.19	1.3943 ± 0.00037
313.15 K, x1 = 0.2001	911.111 ± 0.17	1.41502 ± 0.00037
313.15 K, x1 = 0.3002	960.975 ± 0.16	1.43328 ± 0.00037
313.15 K, x1 = 0.3997	1003.7 ± 0.16	1.44834 ± 0.00038
313.15 K, x1 = 0.4982	1040.55 ± 0.18	1.46101 ± 0.00038
313.15 K, x1 = 0.6001	1074.01 ± 0.22	1.47289 ± 0.00038
313.15 K, x1 = 0.6993	1102.82 ± 0.25	1.48252 ± 0.00039
313.15 K, x1 = 0.7993	1128.73 ± 0.29	1.49187 ± 0.00039
313.15 K, x1 = 0.9002	1152.15 ± 0.33	1.50006 ± 0.0004
313.15 K, x1 = 1	1172.97 ± 0.37	1.50736 ± 0.0004
318.15 K, x1 = 0.1002	847.588 ± 0.19	1.39158 ± 0.00037
318.15 K, x1 = 0.2001	905.966 ± 0.17	1.4124 ± 0.00037
318.15 K, x1 = 0.3002	955.922 ± 0.16	1.43077 ± 0.00037
318.15 K, x1 = 0.3997	998.73 ± 0.16	1.44591 ± 0.00038
318.15 K, x1 = 0.4982	1035.65 ± 0.18	1.45864 ± 0.00038
318.15 K, x1 = 0.6001	1069.17 ± 0.21	1.47061 ± 0.00038
318.15 K, x1 = 0.6993	1098.05 ± 0.25	1.48032 ± 0.00039
318.15 K, x1 = 0.7993	1124.01 ± 0.29	1.48973 ± 0.00039
318.15 K, x1 = 0.9002	1147.47 ± 0.33	1.49796 ± 0.0004
318.15 K, x1 = 1	1168.32 ± 0.37	1.50524 ± 0.0004
323.15 K, x1 = 0.1002	842.312 ± 0.21	1.38878 ± 0.00037
323.15 K, x1 = 0.2001	900.811 ± 0.19	1.40956 ± 0.00037
323.15 K, x1 = 0.3002	950.87 ± 0.18	1.42768 ± 0.00037
323.15 K, x1 = 0.3997	993.761 ± 0.17	1.44306 ± 0.00038
323.15 K, x1 = 0.4982	1030.75 ± 0.19	1.45602 ± 0.00038
323.15 K, x1 = 0.6001	1064.33 ± 0.22	1.4681 ± 0.00038
323.15 K, x1 = 0.6993	1093.26 ± 0.25	1.47795 ± 0.00039
323.15 K, x1 = 0.7993	1119.27 ± 0.29	1.48748 ± 0.00039
323.15 K, x1 = 0.9002	1140.78 ± 3	1.49582 ± 0.0004
323.15 K, x1 = 1	1163.67 ± 0.37	1.5032 ± 0.0004
